Our source for the AC50 values is PubChem BioAssay AID588398 (Broad Institute, 2011).

Results filed as inconclusive are left out.

This assay in a line: LMP1 TES1 pathway selectivity over dsRED control – imaging, HEK293T, dual-color eGFP/dsRED, cherry-picks, selectivity assay for LMP1 NF-kB inhibitor project, dose response (AID 588398). Conditions: HEK293T LMP1 TES1-eGFP reporter, 48 h, dsRED channel counter-screen. In general terms: Counterscreens check selectivity or assay interference.
`CCOc1ccc(Nc2ncnc3ccc([N+](=O)[O-])cc23)cc1` came in with an AC50 of 1.93 µM.

In the case of `COc1cc([C@@H]2c3cc4c(cc3[C@@H](O[C@@H]3O[C@@H]5CO[C@@H](C)O[C@H]5[C@H](O)[C@H]3O)[C@H]3COC(=O)[C@H]23)OCO4)cc(OC)c1O`, the AC50 stood at 14.5 µM.

As to `COc1ccc(C=C2CS(=O)(=O)CC(=Cc3ccc(OC)cc3)C2=O)cc1`, the AC50 came out at 1.61 µM.

`O=S(=O)(c1ccc2c(c1)C(=NO)c1cc(S(=O)(=O)N3CCCCC3)ccc1-2)N1CCCCC1` returned an AC50 greater than 19.5 µM.

`NC(=S)N/N=C/c1ncc(C(F)(F)F)cc1Cl` registered an AC50 of 12.1 µM.

For the compound `CCCC(=O)NC(c1ccc(C)cc1)c1ccc2cccnc2c1O` (centres undefined), the AC50 came out at 4.12 µM.

In turn, `CC1CCN(C(=O)/C(=C\c2cccs2)NC(=O)c2ccccc2)CC1` came in with an AC50 greater than 19.5 µM.

As for `CC(=NNc1nc2ccccc2o1)c1ncccn1`, the AC50 is 1.13 µM.

The compound `c1ccc(C(=NNc2nc3ccccc3s2)c2ccccn2)cc1` registered an AC50 of 1.48 µM.

As for `CC(=NNC(=S)Nc1ccccc1)c1ccccn1`, the AC50 is 1.37 µM.

In turn, `Cc1ccc(C(=O)Nc2cccc(C(F)(F)F)c2)cc1Nc1ncnc2nc[nH]c12` had an AC50 of 9.97 µM.

As to `CCN(CC)S(=O)(=O)c1ccc(N/N=C/c2ccc(O)cc2O)nc1`, the AC50 was found to be 4.19 µM.

For the compound `COc1ccc(-c2csc3ncnc(NCCCO)c23)cc1`, the AC50 came to 4.81 µM.

In the case of `CC(=NNc1nc2ccccc2o1)c1cc2ccccc2cn1`, the AC50 is 3.99 µM.

`CCOC(=O)c1c(-n2cccc2)sc2c1CCCC2=O` came in with an AC50 of 11 µM.

In turn, `N#Cc1ncc(N=Cc2ccc(N(CCCl)CCCl)cc2)s1` returned an AC50 of 12.6 µM.

Turning to `Cc1ccc2[nH]c3c(c2c1)CCCC3NC(=O)CCl` (centres undefined), the AC50 came to 3.25 µM.

For the compound `C#CCN(C[C@@H]1[C@@H](OC(=O)NCC2CCCCC2)[C@@H](OC(=O)NCC2CCCCC2)Cn2c(=O)ccc(=O)n21)S(=O)(=O)c1ccc(C)cc1`, the AC50 was found to be 2.83 µM.

As for `COC(=O)[C@@]1(Cc2ccccc2)[C@H]2C(=O)N(Cc3ccccc3)C(=O)[C@H]2[C@H]2CN=C(SCc3ccc(Cl)cc3)N21`, the AC50 was 2.49 µM.

As to `COc1cccc(/C=N/Nc2nccnc2Cl)c1O`, the half-maximal activity concentration (AC50) stood at 12.1 µM.

For the compound `CS(=O)(=O)c1ccc(Sc2nc3ccccc3s2)c([N+](=O)[O-])c1`, the AC50 is 3.22 µM.

For `C=C1C(=O)C2=CC1CCC(=O)C1(C)CCC(OC(C)=O)C(C)(C)C1CC2O` (centres undefined), the AC50 was 2.73 µM.

Regarding `COc1cc(C=C2CCCC(=Cc3ccc(OCC4CO4)c(OC)c3)C2=O)ccc1OCC1CO1` (centres undefined), the half-maximal activity concentration (AC50) amounted to 8.08 µM.

In turn, `c1nc(NCc2ccc3c(c2)OCO3)c2cc(-c3ccoc3)ccc2n1` showed an AC50 of 1.56 µM.

With `COc1cccc(/C=N/Nc2nc3ccccc3[nH]2)c1O`, the AC50 was 12 µM.

The compound `Cc1cc(=O)[nH]c(NN=Cc2cc(Br)ccc2O)n1` had an AC50 of 8.82 µM.

For the compound `CCn1c2ccccc2c2cc(/C=N/NC(=O)c3cc(O)cc(O)c3)ccc21`, the AC50 turned out to be 2.14 µM.

For the compound `CC1=C(C(=O)OCc2ccc3c(c2)OCO3)C(c2ccc(Cl)cc2)NC(=O)N1` (centres undefined), the AC50 was 0.1 µM.

Compound `COc1ccc(-n2c(C)c(C(C)=O)c3cc(OC(C)=O)ccc32)cc1` came in with an AC50 of 1 µM.

Compound `CN(CCNC(=O)C1CCN(S(=O)(=O)N2CCOCC2)CC1)CCc1ccccc1` displayed an AC50 greater than 19.5 µM.

On to `CC(=C/c1ccccc1)/C=N/n1c(-c2ccncc2)n[nH]c1=S`, for which the concentration at half-maximal activity (AC50) is 1.3 µM.

In turn, `O=C(CF)N(O)c1ccc(C=Cc2ccccc2)cc1` returned an AC50 of 1.51 µM.

`NC(=S)NN=Cc1nccc2c(C(F)(F)C(F)(F)C(F)(F)F)cccc12`: the AC50 came to 1.27 µM.

Compound `Oc1ccc2ccccc2c1N=Nc1ccccn1` yielded an AC50 of 7.53 µM.

Take `COc1ccc(-c2csc(Nc3cccc(C)n3)n2)cc1OC`: the AC50 is greater than 19.5 µM.

Turning to `Cc1ccccc1C(=O)N1CCN(c2ccc(NC(=O)CSc3ccc(Cl)cc3)cc2)CC1`, the AC50 came to 0.253 µM.

`O=C(c1ccccc1)C(CCC(CN1CCOCC1)C(=O)c1ccccc1)CN1CCOCC1` (centres undefined) showed an AC50 of 1.99 µM.

Compound `CNc1cccnc1C=NNC(N)=S` showed an AC50 of 12.8 µM.

Turning to `O=C(N/N=C/c1ccc[nH]1)c1ccc(COc2cccc3cccnc23)cc1`, the AC50 was found to be 19.2 µM.

As to `CC(C)(O)C#Cc1ccc([C@@H]2C[C@H]3CN(c4ccccc4)C(=O)[C@]34CCCN24)s1`, the AC50 was 14.9 µM.

For the compound `Cc1[nH]n(-c2ccc(Br)cc2)c(=O)c1/C=N/NC(=O)c1ccccc1`, the AC50 worked out at 11.2 µM.

On to `NC(=O)c1sc2nccc(Nc3ccccc3)c2c1N`, for which the AC50 came to 4.04 µM.

`CCn1c2ccccc2c2cc(/C=N/NC(=O)c3ccncc3)ccc21`: the AC50 was found to be 1.68 µM.

For `CCCN(CC)c1ncnc2[nH]ncc12`, the AC50 was 1.41 µM.

With `COc1ccc(-n2c(C)c([N+](=O)[O-])c3ccc(O)c(CN(C)C)c32)cc1`, the AC50 worked out at 0.665 µM.

On to `S=C(NN=Cc1ccccn1)Nc1ccccn1`, for which the AC50 was greater than 19.5 µM.

For `Cc1ccc(-c2csc(=Nc3cccnc3)n2CCCn2ccnc2)cc1C`, the AC50 worked out at 5.1 µM.

As for `CCOC(=O)/C=C(\C)Sc1cc(=O)oc2ccccc12`, the AC50 stood at 8.75 µM.

In the case of `CCC(=O)NC(c1ccc(C)cc1)c1ccc2cccnc2c1O` (centres undefined), the AC50 was found to be 3.61 µM.

What is called AC50 is the concentration at which the activity in the assay is half-maximal. Read a low AC50 as greater potency.
